This passage reports AC50, IC50 and EC50 results from ChEMBL document CHEMBL1201862, “PubChem BioAssay data set” (2004).

SMILES strings stand for the structures. Active and inactive are the calls of the source. Bounds are passed on as bounds.

The test system of experiment [1] is HEK293. Nature of the experiment: EBV LMP1 TES2 canonical NF-kB signalling blockers – cell-based, HEK293, luciferase, cherry-pick, dose response (AID 588343). Format: functional. To be noted: Homo sapiens.
Experiment [2] concerns the target T1, Tyrosyl-DNA phosphodiesterase 2 (Homo sapiens, UniProt O95551).
T1 sequence (O95551 whole entry): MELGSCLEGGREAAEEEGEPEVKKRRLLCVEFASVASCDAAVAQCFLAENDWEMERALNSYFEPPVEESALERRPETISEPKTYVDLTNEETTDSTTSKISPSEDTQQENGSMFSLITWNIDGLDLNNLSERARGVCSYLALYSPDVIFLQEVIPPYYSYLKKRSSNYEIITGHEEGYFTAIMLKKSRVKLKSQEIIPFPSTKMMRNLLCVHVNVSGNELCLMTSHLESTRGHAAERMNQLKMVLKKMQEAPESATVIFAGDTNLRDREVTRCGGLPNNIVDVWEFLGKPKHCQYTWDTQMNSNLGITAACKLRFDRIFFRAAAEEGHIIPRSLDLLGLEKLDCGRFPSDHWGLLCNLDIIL
Nature of the experiment: potency against TDP2 phosphodiesterase activity – biochemical, epi absorbance, IC50, dose response (AID 743297).

The target in experiment [3] is T2, RNA-binding protein pos-1 (Caenorhabditis elegans, UniProt G5EF15).
T2 sequence (G5EF15 whole entry): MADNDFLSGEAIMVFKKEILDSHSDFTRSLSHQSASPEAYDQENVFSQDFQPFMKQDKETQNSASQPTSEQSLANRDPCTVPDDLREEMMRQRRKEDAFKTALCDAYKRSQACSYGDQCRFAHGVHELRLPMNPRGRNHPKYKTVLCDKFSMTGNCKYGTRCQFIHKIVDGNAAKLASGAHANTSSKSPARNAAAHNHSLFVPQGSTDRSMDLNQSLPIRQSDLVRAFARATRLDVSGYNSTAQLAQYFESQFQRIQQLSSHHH
The experiment can be described thus: disruptors of C. elegans POS-1 RNA interaction – biochemical, fluorescence polarization, dose response (AID 1964).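 Note: purified POS-1 fused to maltose binding protein made in E. coli; potency of compounds blocking POS-1 binding to fluorescent RNA.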

Experiment [4] deals with T3, Heat shock factor protein 1 (Mus musculus, UniProt P38532).
T3 sequence (P38532 whole entry): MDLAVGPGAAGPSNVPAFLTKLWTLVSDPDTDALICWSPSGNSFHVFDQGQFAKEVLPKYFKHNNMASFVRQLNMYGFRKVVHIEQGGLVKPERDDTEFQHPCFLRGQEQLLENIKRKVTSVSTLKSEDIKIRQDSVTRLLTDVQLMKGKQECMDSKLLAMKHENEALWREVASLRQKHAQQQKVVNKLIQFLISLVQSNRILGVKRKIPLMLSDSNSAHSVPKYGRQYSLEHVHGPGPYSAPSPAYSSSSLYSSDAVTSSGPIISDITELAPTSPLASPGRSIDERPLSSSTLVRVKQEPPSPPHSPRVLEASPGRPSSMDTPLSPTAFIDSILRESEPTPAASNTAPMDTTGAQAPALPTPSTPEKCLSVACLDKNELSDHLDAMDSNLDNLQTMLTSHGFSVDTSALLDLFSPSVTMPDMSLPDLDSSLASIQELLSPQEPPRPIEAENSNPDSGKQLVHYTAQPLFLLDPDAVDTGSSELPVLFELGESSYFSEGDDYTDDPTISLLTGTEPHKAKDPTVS
Nature of the experiment: enhancement of HSF1-driven luciferase signal – cell-based, NIH3T3, luminescence, dose retest, confirmation (AID 435004).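 Note: stress induced by proteasome inhibitor MG132 added 30 min after compound; luciferase reporter driven by HSF1 response element in NIH3T3 cells; actives raise luminescence as potentiators of the MG132 stress response.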 It counts as functional.

The target in experiment [5] is Hexokinase-1 (Homo sapiens, UniProt P19367). Nature of the experiment: HK1 enzyme activation by HKDC1 hits – biochemical, selectivity assay for HKDC1 activator project, dose response (AID 504762). It counts as functional.
Experiment [6] deals with DNA (cytosine-5)-methyltransferase 1 (Homo sapiens, UniProt P26358). Nature of the experiment: inhibition of DNA methylation by DNMT1 – biochemical, fluorescent molecular beacon, confirmation (AID 602386). It counts as functional.
Experiment [7] can be described thus: HEK-293T viability loss after treatment – luminescence, T-cell screen hits, cytotoxicity control for TCR NF-kB inhibitor project, dose response (AID 489026).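 Note: cells exposed to compound about 14 hours before the viability readout.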 Format: functional, cell-based.
In experiment [8] the target is T3, Heat shock factor protein 1. The experiment can be described thus: decrease of HSF1-responsive luciferase luminescence – cell-based, NIH3T3, dose retest, confirmation (AID 2382).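 Note: NIH3T3 fibroblasts with HSF1-driven luciferase reporter stressed by proteasome inhibitor MG132; luminescence from HSF1-driven luciferase expression after 8 hours of MG132 stress.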 Format: functional.
A short description of experiment [9]: cells.
Experiment [10] deals with Streptococcus. Nature of the experiment: GAS UMAA2166 growth inhibition – luminescence, BacTiterGlo, counter-screen for streptokinase expression inhibitor project, dose response (AID 1915).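 Note: potency for reduction of bacterial viability or growth.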 Format: functional, organism-based.

Hexokinase-1, sequence (P19367 whole entry): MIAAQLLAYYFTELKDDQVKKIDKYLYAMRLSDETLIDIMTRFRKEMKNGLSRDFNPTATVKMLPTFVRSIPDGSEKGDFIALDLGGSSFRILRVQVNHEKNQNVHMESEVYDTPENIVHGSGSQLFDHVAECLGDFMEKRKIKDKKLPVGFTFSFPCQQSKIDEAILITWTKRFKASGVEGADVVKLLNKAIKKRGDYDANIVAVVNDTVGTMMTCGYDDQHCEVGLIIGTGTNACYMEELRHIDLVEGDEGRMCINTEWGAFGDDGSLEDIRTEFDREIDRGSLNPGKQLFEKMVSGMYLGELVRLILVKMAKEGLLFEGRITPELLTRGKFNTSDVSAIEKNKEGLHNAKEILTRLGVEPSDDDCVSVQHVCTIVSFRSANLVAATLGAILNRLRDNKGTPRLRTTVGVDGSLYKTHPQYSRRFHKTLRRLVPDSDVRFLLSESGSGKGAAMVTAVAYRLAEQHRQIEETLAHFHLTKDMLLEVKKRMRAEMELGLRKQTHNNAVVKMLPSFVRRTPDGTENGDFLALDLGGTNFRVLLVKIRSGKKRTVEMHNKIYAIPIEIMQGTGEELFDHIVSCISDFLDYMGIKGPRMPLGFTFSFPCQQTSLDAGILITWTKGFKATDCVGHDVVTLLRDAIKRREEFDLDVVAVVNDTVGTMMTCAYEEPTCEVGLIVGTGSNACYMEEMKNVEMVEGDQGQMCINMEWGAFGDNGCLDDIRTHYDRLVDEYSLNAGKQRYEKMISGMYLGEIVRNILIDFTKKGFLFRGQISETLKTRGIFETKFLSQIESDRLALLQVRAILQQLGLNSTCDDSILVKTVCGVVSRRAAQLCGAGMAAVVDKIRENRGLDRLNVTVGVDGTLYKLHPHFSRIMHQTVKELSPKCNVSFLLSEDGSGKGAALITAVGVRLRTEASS
DNA (cytosine-5)-methyltransferase 1, sequence (P26358 whole entry): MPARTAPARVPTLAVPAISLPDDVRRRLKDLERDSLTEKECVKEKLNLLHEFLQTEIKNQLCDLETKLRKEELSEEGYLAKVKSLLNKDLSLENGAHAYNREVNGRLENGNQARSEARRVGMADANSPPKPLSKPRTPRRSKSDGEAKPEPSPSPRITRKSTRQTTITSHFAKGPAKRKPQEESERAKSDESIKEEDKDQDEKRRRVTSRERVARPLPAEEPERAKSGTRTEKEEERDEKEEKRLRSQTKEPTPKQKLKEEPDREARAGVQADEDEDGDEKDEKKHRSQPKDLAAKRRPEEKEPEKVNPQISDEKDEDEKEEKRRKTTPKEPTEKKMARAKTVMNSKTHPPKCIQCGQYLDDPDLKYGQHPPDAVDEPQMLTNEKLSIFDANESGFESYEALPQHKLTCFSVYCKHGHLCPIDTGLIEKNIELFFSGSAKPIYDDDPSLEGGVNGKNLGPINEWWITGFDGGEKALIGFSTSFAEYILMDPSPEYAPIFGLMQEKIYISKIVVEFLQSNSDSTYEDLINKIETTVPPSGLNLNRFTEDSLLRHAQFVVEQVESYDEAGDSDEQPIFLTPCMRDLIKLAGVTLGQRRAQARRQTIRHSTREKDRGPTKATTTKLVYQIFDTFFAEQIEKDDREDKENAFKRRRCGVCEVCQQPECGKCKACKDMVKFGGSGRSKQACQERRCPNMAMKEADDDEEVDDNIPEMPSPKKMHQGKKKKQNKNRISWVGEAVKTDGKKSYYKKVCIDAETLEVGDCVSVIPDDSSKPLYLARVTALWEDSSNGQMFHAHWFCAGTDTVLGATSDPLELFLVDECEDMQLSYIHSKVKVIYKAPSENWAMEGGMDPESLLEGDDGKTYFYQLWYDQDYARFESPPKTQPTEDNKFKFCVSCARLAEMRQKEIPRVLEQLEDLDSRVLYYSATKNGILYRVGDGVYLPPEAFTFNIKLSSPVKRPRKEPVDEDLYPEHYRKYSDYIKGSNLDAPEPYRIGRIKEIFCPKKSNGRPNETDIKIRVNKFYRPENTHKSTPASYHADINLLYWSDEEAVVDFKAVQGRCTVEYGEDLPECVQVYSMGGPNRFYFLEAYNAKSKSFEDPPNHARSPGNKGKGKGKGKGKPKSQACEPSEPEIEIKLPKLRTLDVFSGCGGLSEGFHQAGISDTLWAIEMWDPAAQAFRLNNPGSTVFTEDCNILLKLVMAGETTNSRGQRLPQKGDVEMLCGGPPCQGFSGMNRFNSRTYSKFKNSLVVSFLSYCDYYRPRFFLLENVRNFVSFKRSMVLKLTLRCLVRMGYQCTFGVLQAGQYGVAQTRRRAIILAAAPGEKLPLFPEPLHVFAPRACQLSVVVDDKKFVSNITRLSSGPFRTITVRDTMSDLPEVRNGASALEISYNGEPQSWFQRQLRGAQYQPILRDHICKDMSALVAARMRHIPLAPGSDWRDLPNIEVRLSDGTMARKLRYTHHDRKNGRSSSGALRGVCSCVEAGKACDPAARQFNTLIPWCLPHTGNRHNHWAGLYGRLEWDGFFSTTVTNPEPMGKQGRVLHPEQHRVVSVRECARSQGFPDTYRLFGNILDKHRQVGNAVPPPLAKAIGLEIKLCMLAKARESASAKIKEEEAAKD

Regarding `O=C(CC(O)(C(F)(F)F)C(F)(F)F)Nc1ccc(Cl)c(Cl)c1`, the AC50 in experiment [1] is 1.34 µM (active).

Take `O=C(O)CSc1cc(NS(=O)(=O)c2ccc(Br)cc2)c2ccccc2c1O`: the IC50 in experiment [2] was 37.2 µM (inactive). In addition, the EC50 in experiment [3] was 20.7 µM (active); in experiment [4], > 260 µM (inactive).

As to `O=C1NC(=S)N/C1=C/c1cc2c(cc1[N+](=O)[O-])OCO2`, in experiment [5], the EC50 was 37.9 µM (inactive). Besides, the half-maximal inhibitory concentration (IC50) in experiment [6] was 3.85 µM (active).

Take `Cc1ccc(NC(=O)C2=C(c3ccccc3)S(=O)(=O)CCS2(=O)=O)cc1`: the IC50 in experiment [7] is > 80 µM (inactive). Besides, the concentration giving a half-maximal response (EC50) in [8] is 6.3 µM (active).

Consider `O=C(CNc1cccc2ccccc12)N/N=C/c1ccc([N+](=O)[O-])o1`, for which the figures for the EC50 in experiment [9] and in [10] were 64 nM (active) and 6.2 µM (active), respectively.
